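A five-concentration, 48-hour dose response in 96-well plates underlies each endpoint, interpolated linearly between surrounding concentrations. At the TGI there is no net growth.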
Columns and labels:
Test in all cases: growth of human tumour cells (NCI), 48 h
ACHN renal = tested on: ACHN renal
HT29 colon = tested on: HT29 colon
MDA-MB-231 breast = tested on: MDA-MB-231 breast
MDA-MB-435 = tested on: MDA-MB-435
NCI-H460 lung = tested on: NCI-H460 lung
NCI-H522 lung = tested on: NCI-H522 lung
OVCAR-4 ovarian = tested on: OVCAR-4 ovarian
SN12C renal = tested on: SN12C renal
SNB-19 CNS = tested on: SNB-19 CNS
UACC-257 melanoma = tested on: UACC-257 melanoma
HL-60(TB) leukemia = tested on: HL-60(TB) leukemia

| SMILES | TGI (ACHN renal) [µM] | TGI (HT29 colon) [µM] | TGI (MDA-MB-231 breast) [µM] | TGI (MDA-MB-435) [µM] | TGI (NCI-H460 lung) [µM] | TGI (NCI-H522 lung) [µM] | TGI (OVCAR-4 ovarian) [µM] | TGI (SN12C renal) [µM] | TGI (SNB-19 CNS) [µM] | TGI (UACC-257 melanoma) [µM] | TGI (HL-60(TB) leukemia) [µM] |
| --- | --- | --- | --- | --- | --- | --- | --- | --- | --- | --- | --- |
| O=C(/C=C/c1cccc(Oc2ccccc2)c1)NCc1ccc(C(=O)NCc2ccccc2)cc1 | > 100 | > 100 | > 100 | > 100 | > 100 | > 100 | > 100 | > 100 | > 100 | > 100 |  |
| O=C(OC1C2OC(=O)c3cc(O)c(O)c(O)c3Oc3cc4c(c(O)c3O)-c3c(cc(O)c(O)c3O)C(=O)OCC3OC(O)C(OC(=O)c5cc(O)c(O)c(O)c5Oc5cc6c(c(O)c5O)-c5c(cc(O)c(O)c5O)C(=O)OC1C(COC6=O)OC2O)C(OC(=O)c1cc(O)c(O)c(O)c1)C3OC4=O)c1cc(O)c(O)c(O)c1 (configuration not stated) | > 100 | 51.6 | 68.4 | 42.6 | 14.3 |  | 47.8 | > 100 | 51.6 | > 100 | 44.4 |
| c1ccc2c(c1)c1c(n2CCOCCN2CCCC2)CCCC1 | 42.1 | 47.5 | 31 | 33.8 | 30.5 |  | 73.8 | 33.6 |  | 53 | 30.4 |
| CC[C@@]1(O)C(=O)OCc2c1cc1n(c2=O)Cc2c-1nc1ccccc1c2/C=N\NC(=O)C1CCCN1 (some centres not stated) | 1.02 | > 100 | > 100 | > 100 | 10.5 |  | > 100 | > 48.2 | 2.5 | > 95.4 | > 100 |
| Cn1c2ccccc2c2c3c(c4c5ccccc5n(C)c4c21)C(=O)NC3=O |  | > 100 | > 52.7 | > 100 | 70.1 | > 86.7 | 28.6 | > 100 | 49.6 | > 100 |  |
| OC1(c2ccc(-c3ccccc3)cc2)c2ccccc2C2=NCCN21 (configuration not stated) | 43.9 | 50.3 | > 100 | > 100 | > 100 |  | > 100 | > 100 | 38.3 | > 100 | > 100 |
| CCOC(=O)c1nnsc1N/N=C\c1ccc([N+](=O)[O-])cc1 | > 100 | > 100 | > 100 | > 100 | > 100 | > 100 | > 100 | > 100 | > 100 | > 100 |  |
| C=CCC1CC(n2cc(C)c(=O)[nH]c2=O)OC1CO[Si](C)(C)C(C)(C)C (configuration not stated) | 29.8 | 30.9 | 28.9 | 28.2 | 38.9 | 23.1 | 28.5 | 29.1 | 30.2 | 33.8 |  |
| CC1=NC2=Nc3nc(C)cc[n+]3CN2C=C1 | > 100 | > 100 | > 100 | > 100 | > 100 | > 100 | > 100 | > 100 | > 100 | > 100 |  |
| O=C1c2cc(Cl)ccc2NC(=NC2CCCC2)C2CSCN12 (configuration not stated) | > 100 | > 100 | > 100 | > 100 | > 100 | > 100 | > 100 | > 100 | > 100 | > 100 |  |
| C/C(=N\N=C(\N)SB(F)F)c1ccc2ccccc2c1 | > 100 | > 100 | > 100 | > 100 | > 100 | 72 | > 100 | > 100 | > 100 | > 100 |  |
| CN(C(=O)Cc1ccccc1)n1cnn(CC(=O)OC(C)(C)C)c1=S | > 10 | > 10 | > 10 | > 10 | > 10 | > 10 | > 10 | > 10 | > 10 | > 10 |  |
| O=C(/C=C/c1ccc(-c2ccccc2)cc1)NCc1ccc(C(=O)NCc2ccccc2)cc1 | > 100 | > 100 | > 100 | > 100 | > 100 | > 100 | > 100 | > 100 | > 100 | > 100 |  |
| CN1C/C(=C\c2cccs2)C(O)/C(=C/c2cccs2)C1 (configuration not stated) | > 100 | > 100 | > 100 | > 100 | > 100 | > 100 | > 100 | > 100 | > 100 | > 100 |  |
| COC(=O)CCC1=C(CC(=O)OC)C(C)(OC)N=C1NC(=O)OCc1ccccc1 (configuration not stated) | > 100 | > 100 | > 100 | > 100 | > 100 | > 100 | > 100 | > 100 | > 100 | > 100 |  |
| CC(NC(=O)NC(C)(C)C)NC(=O)C(N)CC(=O)O (configuration not stated) | > 100 | > 100 | > 100 | > 100 | > 100 | > 100 | > 100 | > 100 | > 100 | > 100 |  |
| Cc1nc(CC#N)n[nH]1 | > 100 | > 100 | > 100 | > 100 |  | > 100 | > 100 | > 100 | > 100 | > 100 |  |

— PubChem BioAssay (NCI)
